In patent publication US10590081B2, “Guanidine compounds and use thereof” (ImmunoMet Therapeutics Inc., priority 2015, dated 2020):
Counter-ions that a name gives are not always drawn.

What was measured:
[1] = system: SK-MEL-28 cells; assay: Cytotoxicity in low glucose condition (MTT assay); assay type: cell-based; conditions: Homo sapiens, SK-MEL-28, 72 h, 0.75 mM glucose, 72 hours treatment, read-out: SK-MEL-280.75 mM glucose cell viability (IC50 μM)
Text: Cytotoxicity Assay in Low Glucose Condition
The inhibition of oxidative phosphorylation (OXPHOS) is not cytotoxic to cells in normal glucose condition, because it is postulated that normal cells have compensatory mechanism under energy stress conditions such as low glucose. However OXPHOS inhibitors show cytotoxic effect on cells in the glucose deprived condition (BirsoyK, 2014). The glucose deprived condition is observed in tumor microenvironment potentially due to poor angiogenesis. Therefore the OXPHOS inhibitors may show anti-cancer effect on cancer cells in low glucose condition that may depict tumor microenvironment.
The compounds of the present invention were evaluated their cytotoxicity in SK-MEL-28, melanoma with 0.75 mM glucose supplement. The cytotoxic effect is compared with the cytotoxicity caused by phenformin. The cytotoxicity in low glucose condition is correlated with inhibition of oxygen consumption in mitochondria.
SK-MEL-28 (HTB-72) is a melanoma cell line obtained from ATCC (MA) and cultured in RPMI 1640 media (Lifetechnologies, CA) with supplement of 10% FBS and antibiotic-antimycotic (Lifetechnologies, CA). RPMI 1640 (−Glucose) was used to prepare low glucose media and 0.75 mM glucose was supplied with D-(+)-glucose solution from Sigma. SK-MEL-28 cells were separated from culture plate using 0.5% trypsin-EDTA and 1,250 cells were plated in 96-well plate with low glucose media. After incubation at 37° C. for 24 hour, 5% CO2, the cells were treated with the compounds of present invention in FBS-free media for 72 hours. The cytotoxicity was measured by the MTT (AMRESCO, OH) assay. NADH-dependent cellular oxidoreductase reduces MTT to its insoluble […] with purple color. The enzyme depends on cell number or energy state of cells. 10 μl of 5 mg/ml MTT solution was added to each well of the assay plate and skip the well for blank. The plate was incubated at 37° C. and 5% CO2 for 2 hours. The MTT solution was removed from each well and 100 μl of DMSO was added. The plate was read by VICTOR X3 Multilabel Counter at the wavelength of 550 nm. In Table 2, the levels of IC50 are evaluated by the following criteria.
According to the concentration of compound for killing the half of cell populations (the levels of IC50), the compounds were classified into A, B and C, when the compounds were treated on SK-MEL-28 cells at 0.75 mM glucose.

[2] = system: A549 cells; assay: Test for inhibition of OCR and enhancement of ECAR (XF Analyzer); assay type: cell-based; conditions: Homo sapiens, 24 hrs treatment, oxygen consumption rate
Text: Measurement of Mitochondrial Complex I Inhibition
The electron transfer complex in mitochondria is composed of 5 complexes. The complex I accept electrons from NADH produced from glycolysis and TCA cycle and the electrons move to complex […] and the electron is finally transferred to O2 and water molecule is generated. During the electron transfer, proton gradient is generated and the chemical gradient is a driving source to synthesize ATP at complex V. The mitochondrial inhibition of complex I indirectly assessed by measuring the oxygen consumption rate (OCR) at complex IV. […] The solution outside of cells becomes acidic (lower pH) as lactate is transported to outside of cells. OCR and Extracellular acidification rate (ECAR) are determined by XF Analyzer (Seahorse Biosciences).
A549 cells were purchased from American Type Tissue Culture Collection (CCL-185™) and cultured in RPMI 1640 supplied with 10% fetal bovine serum (FBS) and antibiotic-antimycotic (Lifetech, CA). A549 cells were separated with 0.5% Trypsin-EDTA and 3,000 cells were plated on 1 mg/ml poly-D-lysine (Sigma, P6407) coated XF 96 well […]. A549 cells were allowed to adhere to the wells for 24 hours under the condition of temperature, 37° C. and 5% CO2. The sensor cartridge of XF Analyzer was soaked in 200 μl of Calibrant solution (Seahorse, MA) in a clear 96-well plate at 37° C. for 24 hours. The compounds of the present invention were diluted with RPMI 1640 without FBS, transferred to A549 cells on XF 96 well plate, and incubated further for 23 hours at 37° C. and 5% CO2. After incubation, the compound solution was exchanged with pre-warmed and pH adjusted (pH7.4) XF assay media (Seahorse) supplied with 15 mM D-glucose (Sigma), 15 mM sodium pyruvate (Lifetechnologies, CA) and 4 mM L-glutamine (Lifetechnologies, CA). The compounds of present invention were prepared in XF Assay media and added to the assay plate. The assay plate was equilibrated in XF Analyzer for 1 hour, and the reading were started by sensor cartridge. The cytotoxicity assay was followed using Cyquant (Lifetechnologies, CA) in order to calibrate the inhibition with cytotoxicity of compounds. The concentrations of the compounds were tested at 0, 0.5, 1, 5, 10 and 20 μM and IC50 value was obtained from the inhibited values. That is, from OCR inhibition values at each concentration of the compound, IC50 was calculated according to Prism's dose response curve fitting.
In Table 1, the levels of OCR IC50 are evaluated by the following.
According to the test results of the compounds, the compounds were classified into A, B and C.

Row | IC50 [2] [µM] | SMILES | IC50 [1] [µM]
1 | – | N=C(NC(=N)N1CCC(F)(F)CC1)Nc1ccccc1 [Example 1, N—(N-phenylcarbamimidoyl)-4,4-difluoropiperidine-1-carboximidamide hydrochloride] | > 15
2 | > 4 | N=C(NC(=N)N1CCC(F)(F)CC1)Nc1ccc2c(c1)CCCC2 [Example 2, N—(N-(5,6,7,8-teterhydronaphthalene-2-yl)carbamimidoyl)-4,4-difluoro piperidine-1-carboximidamide hydrochloride] | 6 to 15
3 | > 4 | N=C(NC(=N)N1CCC(F)(F)CC1)Nc1ccc(Cl)c(Cl)c1 [Example 3, N—(N-(3,4-dichlorophenyl)carbamimidoyl)-4,4-difluoropiperidine-1-carboximidamide hydrochloride] | < 6
4 | – | N=C(NC(=N)N1CCC(F)(F)CC1)Nc1ccccc1Br [Example 4, N—(N-(2-bromophenyl)carbamimidoyl)-4,4-difluoropiperidine-1-carboximidamide hydrochloride] | > 15
5 | > 4 | N=C(NC(=N)N1CCC(F)(F)CC1)Nc1cccc(Br)c1 [Example 5, N—(N-(3-bromophenyl)carbamimidoyl)-4,4-difluoropiperidine-1-carboximidamide hydrochloride] | 6 to 15
6 | > 4 | N=C(NC(=N)N1CCC(F)(F)CC1)Nc1ccc(Br)cc1 [Example 6, N—(N-(4-bromophenyl)carbamimidoyl)-4,4-difluoropiperidine-1-carboximidamide hydrochloride] | 6 to 15
7 | > 4 | CSc1ccc(NC(=N)NC(=N)N2CCC(F)(F)CC2)cc1 [Example 8, N—(N-(4-(methythio)phenyl)carbamimidoyl)-4,4-difluoropiperidine-1-carboximidamide hydrochloride] | 6 to 15
8 | 2 to 4 | N=C(NC(=N)N1CCC(F)(F)CC1)Nc1ccc(SC(F)(F)F)cc1 [Example 9, N—(N-(4-(trifluoromethythio)phenyl)carbamimidoyl)-4,4-difluoro piperidine-1-carboximidamide hydrochloride] | < 6
9 | > 4 | CC(C)c1ccc(NC(=N)NC(=N)N2CCC(F)(F)CC2)cc1 [Example 10, N—(N-(4-isopropylphenyl)carbamimidoyl)-4,4-difluoropiperidine-1-carboximidamide hydrochloride] | 6 to 15
10 | > 4 | N=C(NC(=N)N1CCC(F)(F)CC1)Nc1ccc(F)c(Cl)c1 [Example 11, N—(N-(3-chloro-4-fluorophenyl)carbamimidoyl)-4,4-difluoropiperidine-1-carboximidamide hydrochloride] | 6 to 15
11 | 2 to 4 | N=C(NC(=N)N1CCC(F)(F)CC1)Nc1cccc(Oc2ccccc2)c1 [Example 13, N—(N-(3-phenoxyphenyl)carbamimidoyl)-4,4-difluoropiperidine-1-carboximidamide hydrochloride] | < 6
12 | 2 to 4 | N=C(NC(=N)N1CCSC1)Nc1ccc(SC(F)(F)F)cc1 [Example 14, N—(N-(4-(trifluoromethythio)phenyl)carbamimidoyl)thiazolidine-3-carboximidamide hydrochloride] | < 6
13 | 2 to 4 | N=C(NC(=N)N1CCC(F)(F)CC1)Nc1ccc(OC(F)(F)F)cc1 [Example 17, N—(N-(4-(trifluoromethoxy)phenyl)carbamimidoyl)-4,4-difluoropiperidine-1-carboximidamide acetate] | –
14 | 2 to 4 | N=C(NC(=N)N1CCC(F)(F)CC1)Nc1ccc(I)c(Cl)c1 [Example 18, N—(N-(3-chloro-4-iodophenyl)carbamimidoyl)-4,4-difluoropiperidine-1-carboximidamide acetate] | –
15 | 2 to 4 | N=C(NC(=N)N1CCC(F)(F)CC1)Nc1ccc(C(F)(F)F)cc1 [Example 21, N—(N-(4-(trifluoromethyl)phenyl)carbamimidoyl)-4,4-difluoropiperidine-1-carboximidamide acetate] | < 6
16 | 2 to 4 | N=C(NC(=N)N1CCC(F)(F)CC1)Nc1ccc(I)c(Br)c1 [Example 22, N—(N-(3-bromo-4-iodophenyl)carbamimidoyl)-4,4-difluoropiperidine-1-carboximidamide acetate] | < 6
17 | 2 to 4 | N=C(NC(=N)N1CCC(F)(F)CC1)Nc1ccc(Oc2ccccc2)cc1 [Example 23, N—(N-(4-phenoxyphenyl)carbamimidoyl)-4,4-difluoropiperidine-1-carboximidamide acetate] | < 6
18 | 2 to 4 | N=C(NC(=N)N1CCC(F)(F)C1)Nc1ccc(OC(F)(F)F)cc1 [Example 25, N—(N-(4-(trifluoromethoxy)phenyl)carbamimidoyl)-3,3-difluoropyrrolidine-1-carboximidamide acetate] | < 6
19 | 2 to 4 | N=C(NC(=N)N1CCC(F)(F)CC1)Nc1ccc(Br)c(Br)c1 [Example 26, N—(N-(3,4-dibromophenyl)carbamimidoyl)-4,4-difluoropiperidine-1-carboximidamide acetate] | 6 to 15
20 | < 2 | N=C(NC(=N)N1CCC(F)(F)CC1)Nc1ccc(OC(F)(F)F)c(F)c1 [Example 27, N—(N-(3-fluoro-4-(trifluoromethoxy)phenyl)carbamimidoyl)-4,4-fluoropiperidine-1-carboximidamide acetate] | < 6
21 | 2 to 4 | N=C(NC(=N)N1CCC(F)(F)C1)Nc1ccc(Oc2ccccc2)cc1 [Example 28, N—(N-(4-phenoxyphenyl)carbamimidoyl)-3,3-difluoropyrrolidine-1-carboximidamide acetate] | < 6
22 | < 2 | N=C(NC(=N)N1CCC(F)(F)C1)Nc1cccc(Oc2ccccc2)c1 [Example 29, N—(N-(3-phenoxyphenyl)carbamimidoyl)-3,3-difluoropyrrolidine-1-carboximidamide acetate] | < 6
23 | 2 to 4 | N=C(NC(=N)N1CCC(F)(F)C1)Nc1ccc(OC(F)(F)F)c(Br)c1 [Example 39, N—(N-(3-bromo-4-(trifluoromethoxy)phenyl)carbamimidoyl)-3,3-difluoropyrrolidine-1-carboximidamide acetate] | –
24 | > 4 | N=C(NCc1ccccc1Br)NC(=N)N1CCC(F)(F)CC1 [Example 40, N—(N-(2-bromobenzyl)carbamimidoyl)-4,4-difluoropiperidine-1-carboximidamide hydrochloride] | –
25 | > 4 | N=C(NCc1ccc(Br)cc1)NC(=N)N1CCC(F)(F)CC1 [Example 55, N—(N-(4-bromobenzyl)carbamimidoyl)-4,4-difluoropiperidine-1-carboximidamide acetate] | –
